Target: T1, Human MTHFD2 (Homo sapiens, UniProt P13995)
T1 construct: residues 36-350 in Uniport ID P13995; His6 (N); made in house; host or cells: E. coli
T1 sequence (P13995 36-350): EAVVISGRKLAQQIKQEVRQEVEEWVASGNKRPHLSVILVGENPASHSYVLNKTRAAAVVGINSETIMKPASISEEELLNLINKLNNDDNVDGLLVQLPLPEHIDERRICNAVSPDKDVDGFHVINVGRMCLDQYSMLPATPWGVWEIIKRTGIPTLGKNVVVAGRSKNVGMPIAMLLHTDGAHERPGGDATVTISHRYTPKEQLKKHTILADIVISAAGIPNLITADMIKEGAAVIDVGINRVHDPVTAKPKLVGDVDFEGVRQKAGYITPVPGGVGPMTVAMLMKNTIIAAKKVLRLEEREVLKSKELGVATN
Assay: MTHFD2 Activity Assay (dehydrogenase activity, diaphorase/resazurin coupled fluorescence)
Assay type: biochemical
Details: inhibitory activity (IC50 and/or binding constant); 0.2 nM MTHFD2, 11 concentrations
In short: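 Steps: compound + 0.2 nM enzyme, 15 min, pH 8.0 Hepes buffer; add 70 μM CH2-THF, 1 mM NAD+, 100 μM resazurin, diaphorase; 30 min; quench with EDTA; read fluorescence. Data normalized to DMSO (100%) and no-enzyme (0%) wells.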

| SMILES | IC50 [nM] |
| --- | --- |
| Cn1c(Nc2ccncc2)nc2c1c(=O)n(Cc1cc3c(Cl)ccc(Cl)c3[nH]1)c(=O)n2C [Example 477, 1-((4,7-dichloro-1H-indol-2-yl)methyl)-3,7-dimethyl-8-(pyridin-4-ylamino)-1H-purine-2,6(3H,7H)-dione] | 10 to 1000 |
| Cn1c(C(C(N)=O)c2ccncc2)nc2c1c(=O)n(Cc1cc3c(Cl)cccc3[nH]1)c(=O)n2C (centres unmarked) [Example 480, 2-(1-((4-chloro-1H-indol-2-yl)methyl)-3,7-dimethyl-2,6-dioxo-2,3,6,7-tetrahydro-1H-purin-8-yl)-2-(pyridin-4-yl)acetamide] | 10 to 1000 |
| CC(CN)c1nc2c(c(=O)n(Cc3cc4c(Cl)cccc4[nH]3)c(=O)n2C)n1C (centres unmarked) [Example 485, 8-(1-aminopropan-2-yl)-1-((4-chloro-1H-indol-2-yl)methyl)-3,7-dimethyl-1H-purine-2,6(3H,7H)-dione] | 10 to 1000 |

Further lines, results first:

| IC50 [nM] | SMILES |
| --- | --- |
| 10 to 1000 | C/C(=N\O)c1nc2c(c(=O)n(Cc3cc4c(Cl)cccc4[nH]3)c(=O)n2C)n1C [Example 478, (E)-1-((4-chloro-1H-indol-2-yl)methyl)-8-(1-(hydroxyimino)ethyl)-3,7-dimethyl-1H-purine-2,6(3H,7H)-dione or (Z)-1-((4-chloro-1H-indol-2-yl)methyl)-8-(1-(hydroxyimino)ethyl)-3,7-dimethyl-1H-purine-2,6(3H,7H)-dione] |
| 10 to 1000 | C/C(=N/O)c1nc2c(c(=O)n(Cc3cc4c(Cl)cccc4[nH]3)c(=O)n2C)n1C [Example 481, (Z)-1-((4-chloro-1H-indol-2-yl)methyl)-8-(1-(hydroxyimino)ethyl)-3,7-dimethyl-1H-purine-2,6(3H,7H)-dione or (E)-1-((4-chloro-1H-indol-2-yl)methyl)-8-(1-(hydroxyimino)ethyl)-3,7-dimethyl-1H-purine-2,6(3H,7H)-dione] |

From patent publication US12187728B2 (Raze Therapeutics, Inc., priority 2015, dated 2025)
